pIC50: −log10 of the molar value.
Tested on: 349418-098-R-PDC complex spheroid growth
Test: Anticancer human tumor 349418-098-R-PDC patient-derived lung adenocarcinoma cell line growth inhibition [AhR]
Conditions: for pIC50: curve of first compound; for viability, T/C: stronger effect = lower value
Procedure, shortened: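 Complex tumor spheroids co-cultured with HUVEC and human MSC stroma; AhR antagonists tested in combination with standard-of-care and investigational agents. Top concentration at or near clinical Cmax (else 10 microM), half-log dilutions; growth expressed as percent test/control.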

[1] = second compound 0.1 µM, first compound 0.0316 µM
[2] = second compound 0.1 µM, first compound 0.1 µM
[3] = second compound 0.1 µM, first compound 0.316 µM
[4] = second compound 0.1 µM, first compound 1 µM
[5] = second compound 0.1 µM, first compound 3.16 µM
[6] = second compound 0.1 µM, first compound 10 µM
[7] = second compound 0.316 µM, first compound 0.0316 µM
[8] = second compound 0.316 µM, first compound 0.1 µM
[9] = second compound 0.316 µM, first compound 0.316 µM
[10] = second compound 0.316 µM, first compound 1 µM
[11] = second compound 0.316 µM, first compound 3.16 µM
[12] = second compound 0.316 µM, first compound 10 µM
[13] = second compound 1 µM, first compound 0.0316 µM
[14] = second compound 1 µM, first compound 0.1 µM
[15] = second compound 1 µM, first compound 0.316 µM
[16] = second compound 1 µM, first compound 1 µM
[17] = second compound 1 µM, first compound 3.16 µM
[18] = second compound 1 µM, first compound 10 µM
[19] = second compound 3.16 µM, first compound 0.0316 µM
[20] = second compound 3.16 µM, first compound 0.1 µM
[21] = second compound 3.16 µM, first compound 0.316 µM
[22] = second compound 3.16 µM, first compound 1 µM
[23] = second compound 3.16 µM, first compound 3.16 µM
[24] = second compound 3.16 µM, first compound 10 µM
[25] = second compound 10 µM, first compound 0.0316 µM
[26] = second compound 10 µM, first compound 0.1 µM
[27] = second compound 10 µM, first compound 0.316 µM
[28] = second compound 10 µM, first compound 1 µM
[29] = second compound 10 µM, first compound 3.16 µM
[30] = second compound 10 µM, first compound 10 µM
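Also: spheroids exposed to agents for seven days before luminescence viability read.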
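For viability, T/C in this document: spheroids also contain HUVEC endothelial cells and human MSC stroma.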

## CC(C)c1c(-c2ccccc2)nc2c(C#N)c[nH]n2c1=O + CC(CO)NC(=O)c1cc(-c2ccc(Cl)cc2)nn(-c2cnn(C)c2)c1=O
Second compound 0.1 µM
  pIC50: < 5.00
Second compound 0.316 µM
  pIC50: < 5.00
Second compound 1 µM
  pIC50: < 5.00
Second compound 3.16 µM
  pIC50: < 5.00
Second compound 10 µM
  pIC50: 6.77
[1]
  viability, T/C: 91.8%
[2]
  viability, T/C: 66.8%
[3]
  viability, T/C: 98.2%
[4]
  viability, T/C: 68.5%
[5]
  viability, T/C: 77%
[6]
  viability, T/C: 78%
[7]
  viability, T/C: 66.9%
[8]
  viability, T/C: 93.3%
[9]
  viability, T/C: 67.7%
[10]
  viability, T/C: 78.7%
[11]
  viability, T/C: 85.7%
[12]
  viability, T/C: 60.8%
[13]
  viability, T/C: 91.3%
[14]
  viability, T/C: 70.7%
[15]
  viability, T/C: 88.3%
[16]
  viability, T/C: 67.1%
[17]
  viability, T/C: 58.2%
[18]
  viability, T/C: 70.3%
[19]
  viability, T/C: 70.3%
[20]
  viability, T/C: 86.2%
[21]
  viability, T/C: 71.8%
[22]
  viability, T/C: 77.2%
[23]
  viability, T/C: 56.4%
[24]
  viability, T/C: 60.4%
[25]
  viability, T/C: 54.3%
[26]
  viability, T/C: 55.3%
[27]
  viability, T/C: 46.5%
[28]
  viability, T/C: 45%
[29]
  viability, T/C: 43.6%
[30]
  viability, T/C: 45.5%

## CC1COCCN1c1cc(-c2ccnn2C)c2ccnc(-c3ccn[nH]3)c2n1 (stereo not given) + CC(CO)NC(=O)c1cc(-c2ccc(Cl)cc2)nn(-c2cnn(C)c2)c1=O
Second compound 0.1 µM
  pIC50: 7.10
Second compound 0.316 µM
  pIC50: 7.16
Second compound 1 µM
  pIC50: 7.08
Second compound 3.16 µM
  pIC50: 7.17
Second compound 10 µM
  pIC50: 7.28
Second compound 0.1 µM, first compound 0.00316 µM
  viability, T/C: 90.3%
Second compound 0.1 µM, first compound 0.01 µM
  viability, T/C: 99.2%
[1]
  viability, T/C: 81.9%
[2]
  viability, T/C: 41.9%
[3]
  viability, T/C: 14.2%
[4]
  viability, T/C: 10.3%
Second compound 0.316 µM, first compound 0.00316 µM
  viability, T/C: 87.4%
Second compound 0.316 µM, first compound 0.01 µM
  viability, T/C: 92.3%
[7]
  viability, T/C: 89.1%
[8]
  viability, T/C: 31.2%
[9]
  viability, T/C: 15.8%
[10]
  viability, T/C: 9.1%
Second compound 1 µM, first compound 0.00316 µM
  viability, T/C: 112%
Second compound 1 µM, first compound 0.01 µM
  viability, T/C: 128%
[13]
  viability, T/C: 91.6%
[14]
  viability, T/C: 42.2%
[15]
  viability, T/C: 16.6%
[16]
  viability, T/C: 10.9%
Second compound 3.16 µM, first compound 0.00316 µM
  viability, T/C: 67.7%
Second compound 3.16 µM, first compound 0.01 µM
  viability, T/C: 96.1%
[19]
  viability, T/C: 85.3%
[20]
  viability, T/C: 32.8%
[21]
  viability, T/C: 15.8%
[22]
  viability, T/C: 12%
Second compound 10 µM, first compound 0.00316 µM
  viability, T/C: 62.8%
Second compound 10 µM, first compound 0.01 µM
  viability, T/C: 94%
[25]
  viability, T/C: 69.1%
[26]
  viability, T/C: 25.2%
[27]
  viability, T/C: 14.2%
[28]
  viability, T/C: 10.1%

## COc1ccc([C@@H](O)c2cc(-c3ncnc4cc(N5CCOCC5)ccc34)c(F)cc2Cl)nn1 + CC(CO)NC(=O)c1cc(-c2ccc(Cl)cc2)nn(-c2cnn(C)c2)c1=O
Second compound 0.1 µM
  pIC50: 5.69
Second compound 0.316 µM
  pIC50: 5.90
Second compound 1 µM
  pIC50: 6.07
Second compound 3.16 µM
  pIC50: 5.97
Second compound 10 µM
  pIC50: 6.43
[1]
  viability, T/C: 81.3%
[2]
  viability, T/C: 89.9%
[3]
  viability, T/C: 62.5%
[4]
  viability, T/C: 75.7%
[5]
  viability, T/C: 35.3%
[6]
  viability, T/C: 13.8%
[7]
  viability, T/C: 89.3%
[8]
  viability, T/C: 89.7%
[9]
  viability, T/C: 87%
[10]
  viability, T/C: 55.5%
[11]
  viability, T/C: 25.4%
[12]
  viability, T/C: 15.4%
[13]
  viability, T/C: 96.9%
[14]
  viability, T/C: 119%
[15]
  viability, T/C: 97.1%
[16]
  viability, T/C: 41%
[17]
  viability, T/C: 41.2%
[18]
  viability, T/C: 13.2%
[19]
  viability, T/C: 66.2%
[20]
  viability, T/C: 85.8%
[21]
  viability, T/C: 64.8%
[22]
  viability, T/C: 50.1%
[23]
  viability, T/C: 30%
[24]
  viability, T/C: 13.5%
[25]
  viability, T/C: 53.6%
[26]
  viability, T/C: 52.6%
[27]
  viability, T/C: 53.3%
[28]
  viability, T/C: 36.9%
[29]
  viability, T/C: 17%
[30]
  viability, T/C: 13.5%

## O=C(C=Cn1cnc(-c2cc(C(F)(F)F)cc(C(F)(F)F)c2)n1)NNc1cnccn1 + CC(CO)NC(=O)c1cc(-c2ccc(Cl)cc2)nn(-c2cnn(C)c2)c1=O
Second compound 0.1 µM
  pIC50: > 8.02
Second compound 0.316 µM
  pIC50: > 8.02
Second compound 1 µM
  pIC50: 7.77
Second compound 3.16 µM
  pIC50: > 8.02
Second compound 10 µM
  pIC50: > 8.02
Second compound 0.1 µM, first compound 0.00949 µM
  viability, T/C: 44.2%
Second compound 0.1 µM, first compound 0.03 µM
  viability, T/C: 32.1%
Second compound 0.1 µM, first compound 0.0949 µM
  viability, T/C: 18%
Second compound 0.1 µM, first compound 0.3 µM
  viability, T/C: 9.7%
Second compound 0.1 µM, first compound 0.949 µM
  viability, T/C: 8.06%
Second compound 0.1 µM, first compound 3 µM
  viability, T/C: 6.68%
Second compound 0.316 µM, first compound 0.00949 µM
  viability, T/C: 42.7%
Second compound 0.316 µM, first compound 0.03 µM
  viability, T/C: 34.2%
Second compound 0.316 µM, first compound 0.0949 µM
  viability, T/C: 22.2%
Second compound 0.316 µM, first compound 0.3 µM
  viability, T/C: 10.9%
Second compound 0.316 µM, first compound 0.949 µM
  viability, T/C: 7.86%
Second compound 0.316 µM, first compound 3 µM
  viability, T/C: 5.14%
Second compound 1 µM, first compound 0.00949 µM
  viability, T/C: 62.4%
Second compound 1 µM, first compound 0.03 µM
  viability, T/C: 37.9%
Second compound 1 µM, first compound 0.0949 µM
  viability, T/C: 20.1%
Second compound 1 µM, first compound 0.3 µM
  viability, T/C: 11.7%
Second compound 1 µM, first compound 0.949 µM
  viability, T/C: 9.27%
Second compound 1 µM, first compound 3 µM
  viability, T/C: 5.79%
Second compound 3.16 µM, first compound 0.00949 µM
  viability, T/C: 48%
Second compound 3.16 µM, first compound 0.03 µM
  viability, T/C: 43.3%
Second compound 3.16 µM, first compound 0.0949 µM
  viability, T/C: 18.6%
Second compound 3.16 µM, first compound 0.3 µM
  viability, T/C: 9.44%
Second compound 3.16 µM, first compound 0.949 µM
  viability, T/C: 7.82%
Second compound 3.16 µM, first compound 3 µM
  viability, T/C: 5.81%
Second compound 10 µM, first compound 0.00949 µM
  viability, T/C: 36.1%
Second compound 10 µM, first compound 0.03 µM
  viability, T/C: 34.6%
Second compound 10 µM, first compound 0.0949 µM
  viability, T/C: 18.9%
Second compound 10 µM, first compound 0.3 µM
  viability, T/C: 8.82%
Second compound 10 µM, first compound 0.949 µM
  viability, T/C: 7.38%
Second compound 10 µM, first compound 3 µM
  viability, T/C: 6.61%

— PubChem BioAssay AID1918996 (Molecular Pharmacology Branch, DTP, NCI, 2023)
